Results: US11427567B2, “Imidazolyl pyrimidinylamine compounds as CDK2 inhibitors” (Incyte Corporation, priority 2019, dated 2022)
pIC50: −log10 of the molar value.

The compounds below were run against CDK2/Cyclin E1 (Homo sapiens (Human), UniProt P24941) (assay: CDK2/Cyclin E1 HTRF enzyme activity assay (Example A)). Conditions: 1 mM ATP.
Type: biochemical
Procedure: Assays were conducted in white 384-well polystyrene plates in a final reaction volume of 8 μL. […] HTRF signals were read after 1 hour at room temperature on a PHERAstar FS plate reader (BMG Labtech). Data was analyzed with IDBS XLFit and GraphPad Prism 5.0 software using a three or four parameter dose response curve to determine IC50 for each compound.
In the case of `CS(=O)(=O)N1CCC(Nc2ncc(C(F)(F)F)c(-c3cn(-c4ccc(CN5CCCC5=O)cc4Cl)cn3)n2)CC1` [Example 454, 1-(3-Chloro-4-(4-(2-((1-(methylsulfonyl)piperidin-4-yl)amino)-5-(trifluoromethyl)pyrimidin-4-yl)-1H-imidazol-1-yl)benzyl)pyrrolidin-2-one], the pIC50 was ≥ 7.30. With `Cc1nc(-c2nc(NC3CCN(S(C)(=O)=O)CC3)ncc2C(F)(F)F)cn1-c1ccc(N2CCC(N3CCC(O)C3)CC2)cc1F` (stereo not shown) [Example 455, 1-(1-(3-Fluoro-4-(2-methyl-4-(2-((1-(methylsulfonyl)piperidin-4-yl)amino)-5-(trifluoromethyl)pyrimidin-4-yl)-1H-imidazol-1-yl)phenyl)piperidin-4-yl)pyrrolidin-3-ol] the pIC50 was ≥ 7.30. `Cc1nc(-c2nc(NC3CCN(S(C)(=O)=O)CC3)ncc2C(F)(F)F)cn1-c1ccc(N2CC(C)(O)C2)cc1F` [Example 456, 1-(3-Fluoro-4-(2-methyl-4-(2-((1-(methylsulfonyl)piperidin-4-yl)amino)-5-(trifluoromethyl)pyrimidin-4-yl)-1H-imidazol-1-yl)phenyl)-3-methylazetidin-3-ol] was tested, and the pIC50 was ≥ 7.30. For `CN1CCN(CCc2ccc(-n3cnc(-c4nc(NC5CCN(S(C)(=O)=O)CC5)ncc4C(F)(F)F)c3)c(C#N)c2)CC1` [Example 457, 5-(2-(4-Methylpiperazin-1-yl)ethyl)-2-(4-(2-((1-(methylsulfonyl)piperidin-4-yl)amino)-5-(trifluoromethyl)pyrimidin-4-yl)-1H-imidazol-1-yl)benzonitrile], the pIC50 was ≥ 7.30. For `CS(=O)(=O)N1CCC(Nc2ncc(C(F)(F)F)c(-c3cn(-c4ccc(CCN5CCCCC5)cc4C#N)cn3)n2)CC1` [Example 458, 2-(4-(2-((1-(Methylsulfonyl)piperidin-4-yl)amino)-5-(trifluoromethyl)pyrimidin-4-yl)-1H-imidazol-1-yl)-5-(2-(piperidin-1-yl)ethyl)benzonitrile], the pIC50 was ≥ 7.30. For `Cc1nc(-c2nc(NC3CCN(S(C)(=O)=O)CC3)ncc2C(F)(F)F)cn1-c1ccc(CCCN2CCC2)cc1F` [Example 459, 4-(1-(4-(3-(Azetidin-1-yl)propyl)-2-fluorophenyl)-2-methyl-1H-imidazol-4-yl)-N-(1-(methylsulfonyl)piperidin-4-yl)-5-(trifluoromethyl)pyrimidin-2-amine], the pIC50 was ≥ 7.30. For `CCN(C)CCCc1ccc(-n2cc(-c3nc(NC4CCN(S(C)(=O)=O)CC4)ncc3C(F)(F)F)nc2C)c(F)c1` [Example 460, 4-(1-(4-(3-(Ethyl(methyl)amino)propyl)-2-fluorophenyl)-2-methyl-1H-imidazol-4-yl)-N-(1-(methylsulfonyl)piperidin-4-yl)-5-(trifluoromethyl)pyrimidin-2-amine], the pIC50 was ≥ 7.30. With `CS(=O)(=O)N1CCC(Nc2ncc(C(F)(F)F)c(-c3cn(-c4ccccc4F)c(Br)n3)n2)CC1` [Example 461, 4-(2-Bromo-1-(2-fluorophenyl)-1H-imidazol-4-yl)-N-(1-(methylsulfonyl)piperidin-4-yl)-5-(trifluoromethyl)pyrimidin-2-amine] the pIC50 was ≥ 7.30. For `[2H]C([2H])([2H])NCc1cccc(-n2cnc(-c3nc(NC4CCN(S(C)(=O)=O)CC4)ncc3C(F)(F)F)c2)c1Cl` [Example 462, 4-(1-(2-Chloro-3-(((methyl-d3)amino)methyl)phenyl)-1H-imidazol-4-yl)-N-(1-(methylsulfonyl)piperidin-4-yl)-5-(trifluoromethyl)pyrimidin-2-amine], the pIC50 was ≥ 7.30. For `CS(=O)(=O)N1CCC(Nc2ncc(C(F)(F)F)c(-c3cn(-c4cccc(CN5CC(C#N)C5)c4Cl)cn3)n2)CC1` [Example 463, 1-(2-Chloro-3-(4-(2-((1-(methylsulfonyl)piperidin-4-yl)amino)-5-(trifluoromethyl)pyrimidin-4-yl)-1H-imidazol-1-yl)benzyl)azetidine-3-carbonitrile], the pIC50 was ≥ 7.30. With `CN1CCN(CCc2cccc(-n3cnc(-c4nc(NC5CCN(S(C)(=O)=O)CC5)ncc4C(F)(F)F)c3)c2Cl)CC1` [Example 464, 4-(1-(2-Chloro-3-(2-(4-methylpiperazin-1-yl)ethyl)phenyl)-1H-imidazol-4-yl)-N-(1-(methylsulfonyl)piperidin-4-yl)-5-(trifluoromethyl)pyrimidin-2-amine] the pIC50 was ≥ 7.30. `CC(C)NCCc1cccc(-n2cnc(-c3nc(NC4CCN(S(C)(=O)=O)CC4)ncc3C(F)(F)F)c2)c1Cl` [Example 465, 4-(1-(2-Chloro-3-(2-(isopropylamino)ethyl)phenyl)-1H-imidazol-4-yl)-N-(1-(methylsulfonyl)piperidin-4-yl)-5-(trifluoromethyl)pyrimidin-2-amine] was tested, and the pIC50 was ≥ 7.30. For `CCNCCc1cccc(-n2cnc(-c3nc(NC4CCN(S(C)(=O)=O)CC4)ncc3C(F)(F)F)c2)c1Cl` [Example 466, 4-(1-(2-Chloro-3-(2-(ethylamino)ethyl)phenyl)-1H-imidazol-4-yl)-N-(1-(methylsulfonyl)piperidin-4-yl)-5-(trifluoromethyl)pyrimidin-2-amine], the pIC50 was ≥ 7.30. With `CNCCc1cccc(-n2cnc(-c3nc(NC4CCN(S(C)(=O)=O)CC4)ncc3C(F)(F)F)c2)c1Cl` [Example 467, 4-(1-(2-Chloro-3-(2-(methylamino)ethyl)phenyl)-1H-imidazol-4-yl)-N-(1-(methylsulfonyl)piperidin-4-yl)-5-(trifluoromethyl)pyrimidin-2-amine] the pIC50 was ≥ 7.30. For `CC(C)NC(C)c1cccc(-n2cnc(-c3nc(NC4CCN(S(C)(=O)=O)CC4)ncc3C(F)(F)F)c2)c1Cl` (stereo not shown) [Example 468, 4-(1-(2-Chloro-3-(1-(isopropylamino)ethyl)phenyl)-1H-imidazol-4-yl)-N-(1-(methylsulfonyl)piperidin-4-yl)-5-(trifluoromethyl)pyrimidin-2-amine], the pIC50 was ≥ 7.30. With `CC(c1cccc(-n2cnc(-c3nc(NC4CCN(S(C)(=O)=O)CC4)ncc3C(F)(F)F)c2)c1Cl)N1CCC1` (stereo not shown) [Example 469, 4-(1-(3-(1-(Azetidin-1-yl)ethyl)-2-chlorophenyl)-1H-imidazol-4-yl)-N-(1-(methylsulfonyl)piperidin-4-yl)-5-(trifluoromethyl)pyrimidin-2-amine] the pIC50 was ≥ 7.30. For `CS(=O)(=O)N1CCC(Nc2ncc(C(F)(F)F)c(-c3cn(-c4cccc(CN5CC(C#N)C5)c4C(F)(F)F)cn3)n2)CC1` [Example 470, 1-(3-(4-(2-((1-(Methylsulfonyl)piperidin-4-yl)amino)-5-(trifluoromethyl)pyrimidin-4-yl)-1H-imidazol-1-yl)-2-(trifluoromethyl)benzyl)azetidine-3-carbonitrile], the pIC50 was ≥ 7.30. `CS(=O)(=O)N1CCC(Nc2ncc(C(F)(F)F)c(-c3cn(-c4cccc(CN5CC[C@H](C#N)C5)c4C(F)(F)F)cn3)n2)CC1` [Example 471, (S)-1-(3-(4-(2-((1-(Methylsulfonyl)piperidin-4-yl)amino)-5-(trifluoromethyl)pyrimidin-4-yl)-1H-imidazol-1-yl)-2-(trifluoromethyl)benzyl)pyrrolidine-3-carbonitrile] was tested, and the pIC50 was ≥ 7.30. In the case of `CS(=O)(=O)N1CC[C@H](Nc2ncc(C(F)(F)F)c(-c3cn(-c4ccccc4C#N)cn3)n2)[C@H](F)C1` [Example 472, 2-(4-(2-(((3R,4S)-3-Fluoro-1-(methylsulfonyl)piperidin-4-yl)amino)-5-(trifluoromethyl)pyrimidin-4-yl)-1H-imidazol-1-yl)benzonitrile], the pIC50 was ≥ 7.30.

The compounds below were run on Rb phosphorylated on serine 780 in CCNE1 amplified COV318 cells (assay: CDK2 pRb (S780) HTRF cellular assay). Conditions: Homo sapiens, overnight treatment, read-out: IC50 in p-RB S780 HTRF cellular assay.
Type: cell-based
Procedure: CDK2 pRb (5780) HTRF cellular assay enables the quantitative detection of Rb phosphorylated on […] in CCNE1 amplified COV318 cells. The assay comprised two antibodies: Europium cryptate labeled anti-Phospho-Rb […] antibody (donor) and d2 labeled anti-Rb antibody (acceptor). In brief, COV318 cells were seeded into the wells of 96-well plate at a density of 25,000 per well with 9-point, 3-fold serial diluted compounds and cultured overnight at 37 degree with 5% CO2. The final concentrations of compounds start from 3 μM. […] After 2h of incubation at room temperature, HTRF signals were measured on the PHERAstar microplate reader (BMG Labtech), using 340 nm as excitation wavelength, a 620 nm filter for the Europium donor fluorescence, and a 665-nm filter for the acceptor fluorescence detection. HTRF signals were calculated as the HTRF ratio (ratio of fluorescence measured at 665 nm and 620 nm)×10000.
`C[C@@]1(O)CCC[C@H]1n1c(=O)ccc2cnc(NC3CCN(S(C)(=O)=O)CC3)nc21` [Compound A, 8-((1R,2R)-2-hydroxy-2-methylcyclopentyl)-2-((1-(methylsulfonyl)piperidin-4-yl)amino)pyrido[2,3-d]pyrimidin-7(8H)-one] showed a pIC50 of 7.43.

These compounds were tested on CCNE1 amplified COV318 cells (assay: Cell cycle analysis by FACS after p16 knockdown and CDK2 inhibitor treatment). Conditions: control siRNA-treated COV318 cells, 100 nM, 16 hours.
Type: cell-based, human
Procedure: To confirm the role of p16 in CDK2-sensitivity of CCNE-amplified cells, COV318 cells were treated with control or p16-specific siRNA.
Human cyclin E1 (CCNE1) amplified ovarian cell lines OVCAR3, COV318, Fu-OV1, endometrial cell line KLE, gastric cell lines MKN1, AGS, NCIN87, and CCNE1 non-amplified ovarian cell lines COV504, OV56, Igrov1 were cultured in RPMI 1640 medium. The complete growth medium was supplemented with 10% FBS, 0.1 mM non-essential amino acids, 2 mM L-glutamine, 100 units/mL penicillin G and 100 μg/mL streptomycin in 37° C. humidified incubator and an atmosphere of 5% CO2 in air. Fu-OV1 line was purchased from Leibniz-Institute DSMZ—German Collection of Microorganisms and Cell Cultures; MKN1 was purchased from Japanese Cancer Research Resources Bank; and the rest of cell lines were purchased from American Type Culture Collection. For transfection, cells were seeded into 6-well for 24 hours and transiently transfected by Lipofectamine 2000 Reagent (Thermo Fisher, 11668027). […]
Bulk DNA was stained with DAPI. Compound-treated and DMSO treated control cells were acquired with CytoFlex (Beckman Coulter) and were analyzed using the FlowJo software. […]
In the case of `C[C@@]1(O)CCC[C@H]1n1c(=O)ccc2cnc(NC3CCN(S(C)(=O)=O)CC3)nc21` [Compound A, 8-((1R,2R)-2-hydroxy-2-methylcyclopentyl)-2-((1-(methylsulfonyl)piperidin-4-yl)amino)pyrido[2,3-d]pyrimidin-7(8H)-one], the “Percentage of S phase cells” value was “significantly decreased”.

Same assay, conditions: p16 knocked down COV318 cells, 100 nM, 16 hours
With `C[C@@]1(O)CCC[C@H]1n1c(=O)ccc2cnc(NC3CCN(S(C)(=O)=O)CC3)nc21` [Compound A, 8-((1R,2R)-2-hydroxy-2-methylcyclopentyl)-2-((1-(methylsulfonyl)piperidin-4-yl)amino)pyrido[2,3-d]pyrimidin-7(8H)-one] the “Percentage of S phase cells as compared to DMSO control” value was “not significantly decreased”.
